How the values were obtained:
[1] = tested on: cultured cells; details: N-acetylmannosamine added to culture medium; cited from earlier work
[2] = tested on: CHO cell line that had been genetically engineered to produce TNFR:Fc; test: Fraction of TNFR:Fc eluting at high salt from an anion exchange column (relative extent of sialylation); type: cell-based, Chinese hamster; details: additives at 4 mM each in serum-free medium, 7 days at 30° C., FIG. 2
Procedure: The following experiment was done to determine which carbohydrate or combination of carbohydrates added to cell culture medium is able to induce the most sialylation of TNFR:Fc produced by the cells. The relative extent of sialylation was determined by measuring the fraction of TNFR:Fc produced by a cell culture that elutes from an anion exchange column only at a high salt concentration. This provides a rough measure of the extent of sialylation because proteins with more sialic acid require a higher salt concentration for elution from an anion exchange column. […] Cultures were incubated for 7 days at 30° C. with shaking at 150 revolutions per minute. TNFR:Fc was harvested from the medium after seven days of growth and pre-purified by Protein A affinity chromatography. Thereafter, the purified TNFR:Fc protein concentration was determined by measuring absorbance at 280 nanometers. […] At 22.1 minutes, the gradient was complete, and the column contained 100% Buffer B. Elution of protein was determined by monitoring absorbance at 280 nanometers, and a graph of these measurements versus time (relative to the time of loading) was recorded automatically as the protein eluted from the column. […] The fraction of TNFR:Fc that eluted at high salt was determined by comparing the area under the curve that eluted after soybean trypsin inhibitor with the total area under the curve. […]

| SMILES | sialylation of a protein produced by the cultured cells [1] | sialylation of TNFR:Fc (high salt-eluting fraction compared to a batch produced without medium additives) [2] |
| --- | --- | --- |
| CC(=O)N[C@@H]1C(O)O[C@H](CO)[C@@H](O)[C@@H]1O (some centres unmarked) [N-acetylmannosamine] | increased sialylation |  |
| O=C[C@H](O)[C@@H](O)[C@@H](O)[C@H](O)CO [galactose] |  | increases in sialylation |

Source: patent US7645609B2, “Method for controlling sialylation of proteins produced by mammalian cells” (Immunex Corporation, priority 2002, dated 2010)
